Measured values as given in patent US20250161216A1, “CATIONIC LIPID ANALOGUES, COMPOSITIONS AND USES THEREOF” (GUANGZHOU LIDE BIOMEDICINE TECHNOLOGY CO., LTD., priority 2022, published 2025).

Tested on: C57BL/6 mice
Assay: In vivo expression level of Luciferase-mRNA delivered by intravenous injection (bioluminescence imaging)
Conditions: mRNA-loaded nanoparticles, compounds of Example 1; intravenous (tail vein), 5 μg Luciferase-mRNA, 6 hours
Procedure: Luciferase-mRNA was used as an mRNA model; and the cationic lipid analogues of Examples 1-5 were used to prepare drug-loaded nanoparticles according to the method of Example 6.
200 μL of nanoparticles containing 5 μg Luciferase-mRNA or the drug-loaded nanoparticles prepared above were injected into tail veins of 6-8 week-old C57BL/6 mice, and 200 μL of 1×PBS solution containing 3 mg D-Luciferin potassium salt was intraperitoneally injected into the mice 6 hours later. After waiting for 10 minutes, an in vivo expression level of the mRNA was evaluated by bioluminescence imaging.

First: CCCCC/C=C\C/C=C\CCCCCCCC(=O)N(CCCN(C)C)C(C(=O)NCCCCCCCCCCCCCC)C(CC)CCCC (centres unmarked) [A4I10R2C18-2]
Second: CCCCC/C=C\C/C=C\CCCCCCCC(=O)N(CCN(C)CC)C(C(=O)NCCCCCCCCCCCCCCCCCC)C(CC)CCCC (centres unmarked) [A4I18R6C18-2]
The “Fluorescence intensity of liver” value of the first is higher: 1.15E+06 for the first, 3.64E+04 for the second.

Compared with `CCCCC/C=C\C/C=C\CCCCCCCC(=O)N(CCCN(C)C)C(C(=O)NCCCCCCCCCCCCCC)C(CC)CCCC` (centres unmarked) [A4I14R2C18-2], `CCCCC/C=C\C/C=C\CCCCCCCC(=O)N(CCN(CC)CC)C(C(=O)NCCCCCCCCCCCCCCCCCC)C(CC)CCCC` (centres unmarked) [A4I18R8C18-2] is lower in “Fluorescence intensity of liver” value: 9.02E+05 for the first, 2.48E+04 for the second.

Compared with `CC/C=C\C/C=C\C/C=C\CCCCCCCC(=O)N(CCN(C)C)C(C(=O)NCCCCCCCCCCCCCCCCCC)C(CC)CCCC` (centres unmarked) [A4I18R1C18-3], `CCCCC/C=C\C/C=C\CCCCCCCC(=O)N(CCCN(C)C)C(C(=O)NCCCCCCCCCCCCCCCCCC)C(C)CCC=C(C)C` (centres unmarked) [A5I18R2C18-2] is lower in “Fluorescence intensity of liver” value: 3.88E+06 for the first, 8.72E+05 for the second.

Going from `CCCCCCCCCCCCCCCCCCNC(=O)C(C(CC)CCCC)N(CCN(C)C)C(=O)CCCCCCCCCCCCCCCCC` (centres unmarked) [A4I18R1C18] to `CCCCCCCCCCCCCCCCCCNC(=O)C(C(CC)CCCC)N(CCCN(CC)CC)C(=O)CCCCCCCCCCCCCCCCC` (centres unmarked) [A4I18R3C18], the “Fluorescence intensity of liver” value rises from 3.65E+05 to 1.69E+06.

Compared with `CCCCCCCCCCCCC#CC#CCCCCCCCCC(=O)N(CCN(C)C)C(C(=O)NCCCCCCCCCCCCCCCCCC)C(CC)CCCC` (centres unmarked) [A4I18R1C23], `CCCCCCCCCCCCC#CC#CCCCCCCCCC(=O)N(CCCN(CC)CC)C(C(=O)NCCCCCCCCCCCCCCCCCC)C(CC)CCCC` (centres unmarked) [A4I18R3C23] is higher in “Fluorescence intensity of liver” value: 1.78E+06 for the first, 7.81E+06 for the second.

Compared with `CCCCC/C=C\C/C=C\CCCCCCCC(=O)N(CCN1CCOCC1)C(C(=O)NCCCCCCCCCCCCCCCCCC)C(CC)CCCC` (centres unmarked) [A4I18R4C18-2], `CCCCC/C=C\C/C=C\CCCCCCCC(=O)N(CCN1CCCC1)C(CCCCC)C(=O)NCCCCCCCCCCCCCCCCCC` (centres unmarked) [A4I18R10C18-2] is higher in “Fluorescence intensity of liver” value: 1.25E+04 for the first, 7.89E+05 for the second.

First: CCCCC/C=C\C/C=C\CCCCCCCC(=O)N(CCCN(C)c1ccccc1)C(CCCCC)C(=O)NCCCCCCCCCCCCCCCCCC (centres unmarked) [A4I18R7C18-2]
Second: CCCCC/C=C\C/C=C\CCCCCCCC(=O)N(CCC1CCCN1C)C(CCCCC)C(=O)NCCCCCCCCCCCCCCCCCC (centres unmarked) [A4I18R11C18-2]
The “Fluorescence intensity of liver” value of the first is lower: 5.22E+03 for the first, 1.02E+06 for the second.

Compared with `CCCCC/C=C\C/C=C\CCCCCCCC(=O)N(CCCN1CCN(C)CC1)C(CCCCC)C(=O)NCCCCCCCCCCCCCCCCCC` (centres unmarked) [A4I18R9C18-2], `CCCCC/C=C\C/C=C\CCCCCCCC(=O)N(CCN(C)C)C(C(=O)NCCCCCCCCCCCCCCCCCC)C1CCCCC1` (centres unmarked) [A23I18R1C18-2] is higher in “Fluorescence intensity of liver” value: 2.55E+03 for the first, 8.25E+06 for the second.

With `CCCCCCCC/C=C\CCCCCCCC(=O)N(CCN(C)C)C(C(=O)NCCCCCCCCCCCCCCCCCC)C1CCCCC1` (centres unmarked) [A23I18R1C18-1] the “Fluorescence intensity of liver” value was 5.74E+06.

Compared with `CC/C=C\C/C=C\C/C=C\CCCCCCCC(=O)N(CCCN(C)C)C(C(=O)NCCCCCCCCCCCCCCCCCC)C(CC)CCCC` (centres unmarked) [A4I18R2C18-3], `CCCCCCCCCCCCC#CC#CCCCCCCCCC(=O)N(CCCN(C)C)C(C(=O)NCCCCCCCCCCCCCCCCCC)C(CC)CCCC` (centres unmarked) [A4I18R2C23] is higher in Bioluminescence intensity: 1.36E+07 for the first, 1.40E+07 for the second.

`CCCCCCCCCCCCC#CC#CCCCCCCCCC(=O)N(CCCN(CC)CC)C(C(=O)NCCCCCCCCCCCCCCCCCC)C(CC)CCCC` (centres unmarked) [A4I18R3C18-3] was tested, and the Bioluminescence intensity was 1.32E+07.

Same assay, conditions: mRNA-loaded nanoparticles, compounds of Example 2; intravenous (tail vein), 5 μg Luciferase-mRNA, 6 hours

Compared with `CCCCC/C=C\C/C=C\CCCCCCCC(=O)N(CCC)C(C(=O)NCCN(C)CCNC(=O)C(C(CC)CCCC)N(CCC)C(=O)CCCCCCC/C=C\C/C=C\CCCCC)C(CC)CCCC` (centres unmarked) [A4I4R21C18-2], `CCCCCCCC/C=C\CCCCCCCC(=O)N(CCOC)C(C(=O)NCCN(C)CCNC(=O)C(C(CC)CCCC)N(CCOC)C(=O)CCCCCCC/C=C\CCCCCCCC)C(CC)CCCC` (centres unmarked) [A4I4R23C18-1] is higher in “Fluorescence intensity of spleen” value: 1.91E+04 for the first, 6.08E+04 for the second.

First: CCCCCCCCCCCCCCCCCC(=O)N(CCC)C(C(=O)NCCN(C)CCNC(=O)C(C(CC)CCCC)N(CCC)C(=O)CCCCCCCCCCCCCCCCC)C(CC)CCCC (centres unmarked) [A4I4R21C18]
Second: CCCCCCCCCCCCCCCCCC(=O)N(CCC)C(C(=O)NCCN(C)CCNC(=O)C(C1CC1)N(CCC)C(=O)CCCCCCCCCCCCCCCCC)C1CC1 (centres unmarked) [A21I4R21C18]
The “Fluorescence intensity of spleen” value of the first is higher: 2.09E+04 for the first, 5.31E+03 for the second.

First: CCCCC/C=C\C/C=C\CCCCCCCC(=O)N(CCCN(C)C)C(C(=O)NCCN(C)CCNC(=O)C(C1CC1)N(CCCN(C)C)C(=O)CCCCCCC/C=C\C/C=C\CCCCC)C1CC1 (centres unmarked) [A21I4R2C18-2]
Second: CCCCC/C=C\C/C=C\CCCCCCCC(=O)N(CCCN(C)C)C(C(=O)NCCN(C)CCNC(=O)C(C1CCCCC1)N(CCCN(C)C)C(=O)CCCCCCC/C=C\C/C=C\CCCCC)C1CCCCC1 (centres unmarked) [A23I4R2C18-2]
The “Fluorescence intensity of spleen” value of the first is lower: 1.83E+03 for the first, 2.18E+03 for the second.

Compared with `CCCCCCCCCCCCCCCCCC(=O)N(CCCN(C)C)C(C(=O)NCCN(C)CCNC(=O)C(C1CC1)N(CCCN(C)C)C(=O)CCCCCCCCCCCCCCCCC)C1CC1` (centres unmarked) [A21I4R2C18], `CCCCCCCCCCCCCCCCCC(=O)N(CCOC)C(C(=O)NCCN(C)CCNC(=O)C(C1CC1)N(CCOC)C(=O)CCCCCCCCCCCCCCCCC)C1CC1` (centres unmarked) [A21I4R23C18] is higher in “Fluorescence intensity of spleen” value: 1.04E+03 for the first, 2.65E+04 for the second.

Compared with `CCCCCCCCCCCCCCCCCC(=O)N(CCN1CCCCCC1)C(C(=O)NCCN(C)CCNC(=O)C(C1CC1)N(CCN1CCCCCC1)C(=O)CCCCCCCCCCCCCCCCC)C1CC1` (centres unmarked) [A21I4R13C18], `CCCCCCCCCCCCCCCCCC(=O)N(CCC)C(C(=O)NCCN(C)CCNC(=O)C(C1CCCCC1)N(CCC)C(=O)CCCCCCCCCCCCCCCCC)C1CCCCC1` (centres unmarked) [A23I4R21C18] is higher in “Fluorescence intensity of spleen” value: 1.12E+03 for the first, 5.43E+03 for the second.

Compared with `CCCCCCCC/C=C\CCCCCCCC(=O)N(CCC)C(C(=O)NCCN(C)CCNC(=O)C(C1CC1)N(CCC)C(=O)CCCCCCC/C=C\CCCCCCCC)C1CC1` (centres unmarked) [A21I4R21C18-1], `CCCCCCCC/C=C\CCCCCCCC(=O)N(CCO)C(C(=O)NCCN(C)CCNC(=O)C(C1CC1)N(CCO)C(=O)CCCCCCC/C=C\CCCCCCCC)C1CC1` (centres unmarked) [A21I4R22C18-1] is higher in “Fluorescence intensity of spleen” value: 8.50E+03 for the first, 1.76E+04 for the second.

Compared with `CCCCC/C=C\C/C=C\CCCCCCCC(=O)N(CCC)C(C(=O)NCCN(C)CCNC(=O)C(C1CC1)N(CCC)C(=O)CCCCCCC/C=C\C/C=C\CCCCC)C1CC1` (centres unmarked) [A21I4R21C18-2], `CCCCC/C=C\C/C=C\CCCCCCCC(=O)N(CCO)C(C(=O)NCCN(C)CCNC(=O)C(C1CC1)N(CCO)C(=O)CCCCCCC/C=C\C/C=C\CCCCC)C1CC1` (centres unmarked) [A21I4R22C18-2] is lower in “Fluorescence intensity of spleen” value: 1.39E+03 for the first, 1.26E+03 for the second.

Compared with `CCCCCCCC/C=C\CCCCCCCC(=O)N(CCOC)C(C(=O)NCCN(C)CCNC(=O)C(C1CC1)N(CCOC)C(=O)CCCCCCC/C=C\CCCCCCCC)C1CC1` (centres unmarked) [A21I4R23C18-1], `CCCCC/C=C\C/C=C\CCCCCCCC(=O)N(CCOC)C(C(=O)NCCN(C)CCNC(=O)C(C1CC1)N(CCOC)C(=O)CCCCCCC/C=C\C/C=C\CCCCC)C1CC1` (centres unmarked) [A21I4R23C18-2] is higher in “Fluorescence intensity of spleen” value: 2.28E+04 for the first, 6.97E+04 for the second.

First: CCCCCCCC/C=C\CCCCCCCC(=O)N(CCCN(C)C)C(C(=O)NCCN(C)CCNC(=O)C(C1CCCCC1)N(CCCN(C)C)C(=O)CCCCCCC/C=C\CCCCCCCC)C1CCCCC1 (centres unmarked) [A23I4R2C18-1]
Second: CCCCCCCC/C=C\CCCCCCCC(=O)N(CCC)C(C(=O)NCCN(C)CCNC(=O)C(C1CCCCC1)N(CCC)C(=O)CCCCCCC/C=C\CCCCCCCC)C1CCCCC1 (centres unmarked) [A23I4R21C18-1]
The “Fluorescence intensity of spleen” value of the first is lower: 1.78E+03 for the first, 9.63E+04 for the second.

Going from `CCCCC/C=C\C/C=C\CCCCCCCC(=O)N(CCN1CCCCCC1)C(C(=O)NCCN(C)CCNC(=O)C(C1CCCCC1)N(CCN1CCCCCC1)C(=O)CCCCCCC/C=C\C/C=C\CCCCC)C1CCCCC1` (centres unmarked) [A23I4R13C18-2] to `CCCCC/C=C\C/C=C\CCCCCCCC(=O)N(CCC)C(C(=O)NCCN(C)CCNC(=O)C(C1CCCCC1)N(CCC)C(=O)CCCCCCC/C=C\C/C=C\CCCCC)C1CCCCC1` (centres unmarked) [A23I4R21C18-2], the “Fluorescence intensity of spleen” value rises from 9.46E+03 to 6.07E+04.

With `CCCCC/C=C\C/C=C\CCCCCCCC(=O)N(CCOC)C(C(=O)NCCN(C)CCNC(=O)C(C1CCCCC1)N(CCOC)C(=O)CCCCCCC/C=C\C/C=C\CCCCC)C1CCCCC1` (centres unmarked) [A23I4R23C18-2] the “Fluorescence intensity of spleen” value was 1.04E+05.

Compared with `CCCCCCCC/C=C\CCCCCCCC(=O)N(CCCN(C)C)C(C(=O)NCCN(C)CCNC(=O)C(C1CC1)N(CCCN(C)C)C(=O)CCCCCCC/C=C\CCCCCCCC)C1CC1` (centres unmarked) [A21I4R2C18-1], `CCCCCCCCCCCCCCCCCC(=O)N(CCCN(C)C)C(C(=O)NCCN(C)CCNC(=O)C(C1CCCCC1)N(CCCN(C)C)C(=O)CCCCCCCCCCCCCCCCC)C1CCCCC1` (centres unmarked) [A23I4R2C18] is lower in Bioluminescence intensity: 8.38E+02 for the first, 5.71E+02 for the second.

Going from `CCCCCCCC/C=C\CCCCCCCC(=O)N(CCN1CCCCCC1)C(C(=O)NCCN(C)CCNC(=O)C(C1CC1)N(CCN1CCCCCC1)C(=O)CCCCCCC/C=C\CCCCCCCC)C1CC1` (centres unmarked) [A21I4R13C18-1] to `CCCCCCCC/C=C\CCCCCCCC(=O)N(CCN1CCCCCC1)C(C(=O)NCCN(C)CCNC(=O)C(C1CCCCC1)N(CCN1CCCCCC1)C(=O)CCCCCCC/C=C\CCCCCCCC)C1CCCCC1` (centres unmarked) [A23I4R13C18-1], the Bioluminescence intensity falls from 9.59E+02 to 6.61E+02.

Compared with `CCCCC/C=C\C/C=C\CCCCCCCC(=O)N(CCN1CCCCCC1)C(C(=O)NCCN(C)CCNC(=O)C(C1CC1)N(CCN1CCCCCC1)C(=O)CCCCCCC/C=C\C/C=C\CCCCC)C1CC1` (centres unmarked) [A21I4R13C18-2], `CCCCCCCCCCCCCCCCCC(=O)N(CCN1CCCCCC1)C(C(=O)NCCN(C)CCNC(=O)C(C1CCCCC1)N(CCN1CCCCCC1)C(=O)CCCCCCCCCCCCCCCCC)C1CCCCC1` (centres unmarked) [A23I4R13C18] is lower in Bioluminescence intensity: 8.67E+02 for the first, 7.89E+02 for the second.
